Structures can show the parent of a compound that is named as a salt.
Each compound was assayed on Acinetobacter baumannii ATCC17978 (assay: Antimicrobial susceptibility testing: 90% growth inhibitory concentration (IC90) determination, Iso-Sensitest broth). Conditions: 90% growth inhibitory concentration, Acinetobacter baumannii ATCC17978, Iso-Sensitest broth, OD 600 nm over 16 h; read-out: ATCC17978 IC90.
Type: cell-based
How it was run: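 A. baumannii ATCC17978 grown in Iso-Sensitest broth across 10 compound concentrations at 35±2 °C.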
For `COc1ccc(-c2cnc3c(Nc4ccc(C(=O)N5CCN(C(=O)C6CNC6)CC5)c(C)c4)nccn23)cc1F` [Example 187, [4-(azetidine-3-carbonyl)piperazin-1-yl]-[4-[[3-(3-fluoro-4-methoxy-phenyl)imidazo[1,2-a]pyrazin-8-yl]amino]-2-methyl-phenyl]methanone hydrochloride], the IC90 was 230 nM.
`COc1ccc(-c2cnc3c(Nc4ccc(C(=O)N5CCN(CC(C)O)CC5)c(C)c4)nccn23)cc1F` (stereo not shown) [Example 410, [4-[[3-(3-fluoro-4-methoxyphenyl)imidazo[1,2-a]pyrazin-8-yl]amino]-2-methylphenyl]-[4-(2-hydroxypropyl)piperazin-1-yl]methanone] showed an IC90 of 670 nM.
`Cc1cc(Nc2nccn3c(-c4ccc(OC(F)F)c(F)c4)cnc23)ccc1C(=O)N1CCC(N)CC1` [Example 362, (4-aminopiperidin-1-yl)-[4-[[3-[4-(difluoromethoxy)-3-fluorophenyl]imidazo[1,2-a]pyrazin-8-yl]amino]-2-methylphenyl]methanone; hy-drochloride] showed an IC90 of 490 nM.
Work on `COc1ccc(-c2cnc3c(Nc4ccc(C(=O)N5CCC(CN(C)C)CC5)c(C)c4)nccn23)c(F)c1F` [Example 29, (4-((3-(2,3-difluoro-4-methoxyphenyl)imidazo[1,2-a]pyrazin-8-yl)amino)-2-methylphenyl)(4-((dimethylamino)methyl)piperidin-1-yl)methanone] yielded an IC90 of 120 nM.
With `Cc1cc(Nc2nccn3c(-c4ccc(OC(F)F)cc4)cnc23)ccc1C(=O)N1CCN(C(=O)[C@@H]2CCN2)CC1` [Example 176, [4-[(2S)-azetidine-2-carbonyl]piperazin-1-yl]-[4-[[3-[4-(difluoromethoxy)phenyl]imidazo[1,2-a]pyrazin-8-yl]amino]-2-methyl-phenyl]methanone hydrochloride] the IC90 was 130 nM.
For `COc1ccc(-c2cnc3c(Nc4ccc(C(=O)N5CCN(C(=O)[C@H]6CCNC6)CC5)c(C)c4)nccn23)c(Cl)c1F` [Example 210, [4-[[3-(2-chloro-3-fluoro-4-methoxy-phenyl)imidazo[1,2-a]pyrazin-8-yl]amino]-2-methyl-phenyl]-[4-[(3S)-pyrrolidine-3-carbonyl]piperazin-1-yl]methanone formate], the IC90 was 94 nM.
Compound `Cc1cc(Nc2nccn3c(-c4ccc(OC(F)F)cc4)cnc23)ccc1C(=O)N1CCN(C(=O)CC[C@@H](N)C(=O)O)CC1` [Example 271, (2R)-2-amino-5-[4-[4-[[3-[4-(difluoromethoxy)phenyl]imi-dazo[1,2-a]pyrazin-8-yl]amino]-2-methylbenzoyl]piperazin-1-yl]-5-oxopentanoic acid; formic acid] has an IC90 of 2100 nM.
`Cc1cc(Nc2nccn3c(-c4ccc(OCC#N)c(F)c4F)cnc23)ccc1C(=O)N1CCC(C(=O)N2CCN[C@@H](CO)C2)CC1` [Example 543, 2-[2,3-difluoro-4-[8-[4-[4-[(3R)-3-(hydroxymethyl)piperazine-1-carbonyl]piperidine-1-carbonyl]-3-methylanilino]imidazo[1,2-a]pyrazin-3-yl]phenoxy]acetonitrile; for-mic acid] was tested, and the IC90 was 99 nM.
`COc1ccc(-c2cnc3c(Nc4ccc(C(=O)N5CC[C@@H](N)[C@@H](O)C5)c(C)c4)nccn23)cc1F` [Example 423, [(3S,4R)-4-amino-3-hydroxypiperidin-1-yl]-[4-[[3-(3-fluoro-4-methoxyphenyl)imidazo[1,2-a]pyrazin-8-yl]amino]-2-methylphenyl]methanone; hy-drochloride] was tested, and the IC90 was 1100 nM.
`CCc1cc(Nc2nccn3c(-c4ccc(OC)c(F)c4)cnc23)ccc1C(=O)N1CCC(C(=O)O)CC1` [Example 241, 1-(2-Ethyl-4-((3-(3-fluoro-4-methoxyphenyl)imidazo[1,2-a]pyrazin-8-yl)amino)benzoyl)piperidine-4-carboxylic acid] gave an IC90 of 2200 nM.

Same assay, conditions: Acinetobacter baumannii, ATCC17978, 16 h, read-out: ATCC17978 IC90, 90% growth inhibitory concentration, Acinetobacter baumannii ATCC17978, Iso-Sensitest broth, OD 600 nm over 16 h
Work on `COc1ccc(-c2cnc3c(Nc4ccc(C(=O)N5CCN(C(=O)[C@@H]6C[C@@H](OC(=O)[C@@H](N)[C@@H](C)O)CN6)CC5)c(C)c4)nccn23)c(F)c1F` [Example 549, [(3R,5S)-5-[4-[4-[[3-(2,3-difluoro-4-methoxy-phenyl)imidazo[1,2-a]pyrazin-8-yl]amino]-2-methyl-benzoyl]piperazine-1-carbonyl]pyrrolidin-3-yl] (2S,3R)-2-amino-3-hydroxy-butanoate formate] yielded an IC90 of 75 nM.
With `Cc1cc(Nc2nccn3c(-c4ccc(OC(F)F)cc4)cnc23)ccc1C(=O)N1CCC2(CC1)CNC2` [Example 360, 2,7-diazaspiro[3.5]nonan-7-yl-[4-[[3-[4-(difluoromethoxy)phenyl]imi-dazo[1,2-a]pyrazin-8-yl]amino]-2-methylphenyl]methanone; hy-drochloride] the IC90 was 420 nM.
`Cc1cc(Nc2nccn3c(-c4ccc(OC(F)F)cc4)cnc23)ccc1C(=O)N1CCC(C(=O)N2CCCNCC2)CC1` [Example 325, [4-(1,4-diazepane-1-carbonyl)piperidin-1-yl]-[4-[[3-[4-(difluoromethoxy)phenyl]imi-dazo[1,2-a]pyrazin-8-yl]amino]-2-methylphenyl]methanone; hy-drochloride] was tested, and the IC90 was 340 nM.
For `CCc1cc(Nc2nccn3c(-c4ccc(OS(C)(=O)=O)c(F)c4F)cnc23)ccc1C(=O)N1CCN(C(=O)[C@@H]2C[C@@H](O)CN2)CC1` [Example 454, [4-[8-[3-ethyl-4-[4-[(2S,4R)-4-hydroxypyrrolidine-2-carbonyl]piperazine-1-carbonyl]anilino]imidazo[1,2-a]pyrazin-3-yl]-2,3-difluorophenyl] methanesulfonate; formic acid], the IC90 was 4700 nM.
In the case of `Cc1cc(Nc2nccn3c(-c4ccc(OC(F)F)cc4)cnc23)ccc1C(=O)N1CCN(C(=O)C2(C)CNC2)CC1` [Example 267, [4-[[3-[4-(difluoromethoxy)phenyl]imi-dazo[1,2-a]pyrazin-8-yl]amino]-2-methylphenyl]-[4-(3-methylazetidine-3-carbonyl)piperazin-1-yl]methanone], the IC90 is reported as 1300 nM.
`COc1ccc(-c2cnc3c(Nc4ccc(C(=O)N5CCN(C(=O)N6CCN[C@H](C(=O)O)C6)CC5)c(C)c4)nccn23)c(F)c1F` [Example 515, (2S)-4-[4-[4-[[3-(2,3-difluoro-4-methoxyphenyl)imidazo[1,2-a]pyrazin-8-yl]amino]-2-methylbenzoyl]piperazine-1-carbonyl]piperazine-2-carboxylic acid; formic acid] showed an IC90 of 650 nM.
`Cc1cc(Nc2nccn3c(-c4ccc(OC(F)F)cc4)cnc23)ccc1C(=O)N1CCN(C(=O)[C@H]2C[C@@H](N)C2)CC1` [Example 249, [4-(3-aminocyclobutanecarbonyl)piperazin-1-yl]-[4-[[3-[4-(difluoromethoxy)phenyl]imidazo[1,2-a]pyrazin-8-yl]amino]-2-methyl-phenyl]methanone hydrochloride] gave an IC90 of 180 nM.
With `Cc1cc(Nc2nccn3c(-c4ccc(OC(F)F)cc4)cnc23)ccc1C(=O)N1CCN(C(=O)N2CCNCC2CO)CC1` (stereo not shown) [Example 505, [4-[[3-[4-(difluoromethoxy)phenyl]imi-dazo[1,2-a]pyrazin-8-yl]amino]-2-methylphenyl]-[4-[2-(hydroxymethyl)piperazine-1-carbonyl]piperazin-1-yl]methanone] the IC90 was 500 nM.
For `COc1ccc(-c2cnc3c(Nc4ccc(C(=O)N5CCC(C(=O)NCC6(O)CNC6)CC5)c(C)c4)nccn23)cc1F` [Example 58, 1-(4-((3-(3-fluoro-4-methoxyphenyl)imidazo[1,2-a]pyrazin-8-yl)amino)-2-methylbenzoyl)-N-((3-hydroxyazetidin-3-yl)methyl)piperidine-4-carboxamide 2,2,2-trifluoroacetate], the IC90 was 250 nM.
In the case of `Cc1cc(Nc2nccn3c(-c4ccc(OC(F)F)cc4)cnc23)ccc1C(=O)N1CCN(C(=O)[C@H](N)C2CC2)CC1` [Example 260, (2R)-2-amino-2-cyclopropyl-1-[4-[4-[[3-[4-(difluoromethoxy)phenyl]imi-dazo[1,2-a]pyrazin-8-yl]amino]-2-methylbenzoyl]piperazin-1-yl]ethanone; hydrochloride], the IC90 is reported as 1000 nM.
`COc1ccc(-c2cnc3c(Nc4ccc(C(=O)N5CCC(C(=O)N[C@@H]6CCNC6)CC5)c(C)c4)nccn23)cc1F` [Example 59, (R)-1-(4-((3-(3-fluoro-4-methoxyphenyl)imidazo[1,2-a]pyrazin-8-yl)amino)-2-methylbenzoyl)-N-(pyrrolidin-3-yl)piperidine-4-carboxamide 2,2,2-trifluoroacetate] was tested, and the IC90 was 230 nM.
`Cc1cc(Nc2nccn3c(-c4ccc(OC(F)F)cc4)cnc23)ccc1C(=O)N1CCN(C(=O)c2ccc(C(=O)O)cc2)CC1` [Example 280, 4-[4-[4-[[3-[4-(difluoromethoxy)phenyl]imi-dazo[1,2-a]pyrazin-8-yl]amino]-2-methylbenzoyl]piperazine-1-carbonyl]benzoic acid] gave an IC90 of 4500 nM.
`Cc1cc(Nc2nccn3c(-c4ccc(OC(F)F)cc4)cnc23)ccc1C(=O)N1CCN(C(=O)[C@@H]2CCNC[C@H]2O)CC1` [Example 503, [4-[[3-[4-(difluoromethoxy)phenyl]imi-dazo[1,2-a]pyrazin-8-yl]amino]-2-methylphenyl]-[4-[(3S,4R)-3-hydroxypiperidine-4-carbonyl]piperazin-1-yl]methanone] gave an IC90 of 470 nM.
`Cc1cc(Nc2nccn3c(-c4ccc(OCC#N)c(F)c4F)cnc23)ccc1C(=O)N1CCC(C(=O)OC[C@@H]2CNCCN2)CC1` [Example 473, formic acid; [(2S)-piperazin-2-yl]methyl 1-[4-[[3-[4-(cyanomethoxy)-2,3-difluorophenyl]imidazo[1,2-a]pyrazin-8-yl]amino]-2-methylbenzoyl]piperidine-4-carboxylate] showed an IC90 of 300 nM.
Work on `Cc1cc(Nc2nccn3c(-c4ccc(OC(F)F)cc4)cnc23)ccc1C(=O)N1CCC(CC(=O)O)CC1` [Example 382, 2-[1-[4-[[3-[4-(difluoromethoxy)phenyl]imi-dazo[1,2-a]pyrazin-8-yl]amino]-2-methylbenzoyl]piperidin-4-yl]acetic acid] yielded an IC90 of 3600 nM.

From US20230011869A1 (Hoffmann-La Roche Inc., priority 2018, published 2023)
